{"source": "patent US20250017848A1", "about": "“CARRIER OR AUXILIARY MATERIAL OF OPHTHALMIC PREPARATION, PREPARATION METHOD THEREFOR, AND APPLICATION THEREOF” (CHENGDU RUIMU BIOPHARMACEUTICALS CO., LTD., priority 2021, published 2025)", "key": {"[1]": {"test": "API concentration in rat vitreous body after eye drops (LC/MS/MS)", "format": "in vivo, Sprague Dawley (SD) rats", "conditions": "0.5 h after eye drops, 20 μL/eye; for concentration at 0.5 h: Sprague Dawley, rat, vitreous body, topical, read-out: API concentration in the vitreous body (vitreum) of rats", "method": "Unless otherwise stated, the method for verifying the result of delivering medicaments to the posterior segment of the eye was as follows:\nExperimental instrument and equipment: High performance liquid chromatography, model: LC-20AD (Shimadzu, Japan); mass spectrometer: model: API4000 triple quadrupole mass spectrometer (Applied Biosystems, USA); chromatographic column: Fortis Pace C18 […], 2.1×30 mm (Fortis, UK).\nRats: Healthy adult Sprague Dawley (SD) rats were divided into a test group and a control group, with 6 eyes in each group. The test group received eye drops of the ophthalmic preparation prepared in the Example of the present invention, while the control group received the suspension of medicament (2 mg) in 5 mL of physiological saline (vortex shaking prior to use), at a dosage of 20μL/eye. 0.5 h or 1 h after administration, the animals were euthanized, and the vitreous bodies were quickly collected. The vitreous samples were homogenized and stored at-80° C. To 10 μL of vitreous homogenate, was added 90 μL of 95% ethanol, and then the solution was mixed under ultrasonic for 2 min, followed by vortex mixing for 1 min, to obtain the vitreous homogenate; to 50 μL of the homogenate, was added 175 μL of methanol, and then the resultant solution was vortex mixed for 3 min, and centrifuged at 4° C. and 12000 rpm for 10 min. The supernatant was filtered using a 0.45 μm needle filter. The filtrate was subjected to LC/MS/MS (Positive ion mode, MRM SCAN) analysis."}, "[2]": {"tested_on": "human cytomegalovirus strains HCMV-AD169", "test": "In vitro inhibitory activity against human cytomegalovirus (CPE in MRC-5 cells)", "format": "cell-based", "conditions": "for CPE of each well: 4 wells", "method": "The eye drop delivery systems of ganciclovir prepared in the Examples were tested for its in vitro inhibitory activities against human cytomegalovirus (HCMV).\nHuman embryo lung fibroblasts (MRC-5) infected with human cytomegalovirus strains HCMV-AD169 were chosen and used in the experiment, and the antiviral activity of ganciclovir was investigated with half effective dose (EC50). Four groups were included in the experiment, that is, the test group of the eye drop delivery systems prepared in the Examples, the test group of ganciclovir technical drug, the negative control group (MRC-5 cells), and the positive control group (MRC-5 cells infected with HCMV-AD169). The samples of both test groups were diluted with the culture media to obtain 6 diluted concentrations: 500 μg/mL, 250 μg/mL, 125 μg/mL, 62.5 μg/mL, 31.25 μg/mL, and 15.63 μg/mL, and 4 wells were set for each diluted concentration. Cytopathic effect (CPE) was used as an indicator: 0 for no cytopathy, 1 for ≤25% cytopathy, 2 for 25%-50% cytopathy, 3 for 50%-75% cytopathy, and 4 for 75%-100% cytopathy. The half effective dose (EC50) was calculated using Reed-Munch method: EC50=10n; n=[(logarithm of the dilution degree corresponding to an efficiency of >50%)+(percentage of >50% efficiency−50%)/(percentage of >50% efficiency−percentage of <50% efficiency)×logarithm of the dilution coefficient.\nThe experimental procedures were as follows: MRC-5 cells were adjusting to approximate 1.5×10^5/mL, and then added a 96 well plate, 100 μL of culture media for each well. The plate was cultured in a 37° C., 5% CO2 cell incubator, and then the supernatant was discarded after the cells adhered to the wall as a monolayer. Except for the control groups, […] were added to each well of both test groups at a concentration of 100×TC50 (half of the virus infected cells obtained in the pre-experiment) and then incubated for 2 h. The supernatant was discarded. A series of test samples were added at 100 μL/well, and then the plate was further cultivated. The CPE of each well was observed. When the CPE of the positive control group reached more than 90%, the CPE of each well was recorded, and the half effective dose (EC50) was calculated using the Reed Munch method."}, "[3]": {"tested_on": "Staphylococcus aureus ATCC29213", "test": "In vitro bacteriostasis test (MIC, broth microdilution)", "format": "cell-based", "conditions": "read-out: Minimum inhibitory concentration (MIC)", "method": "(§1) The in vitro bacteriostasis test (MIC) was carried out on the moxifloxacin eye drop delivery system prepared in the Example. The moxifloxacin technical drug was used as the control, while the moxifloxacin eye drop delivery system prepared in Example 6 was used as the test sample, to prepare a drug sensitive plate, so that the drug sensitive plate contained 7-8 diluted concentrations of moxifloxacin technical drug (the control) and the test sample, which was obtained by dilution in a ratio of 1:2. 25 bacterial strains incubated for 18 h-24 h were chosen using inoculation loop, and transferred into sterile physiological saline to form a bacterial suspension equivalent to 0.5 MCF; the bacterial suspension was added to the liquid drug sensitive media, in which the ratio of the bacterial suspension to the liquid media was 1:200, and mixed well, then 100 μL of diluted bacterial solution was added to each well; the media was incubated at 35° C.±2° C. for 16-20 h; the growth of bacteria in each well was determined by turbidity, and observed from low concentration to high concentration. The minimum drug concentration that could inhibit bacterial growth was the MIC of the drug."}, "[4]": {"tested_on": "Enterococcus faecalis ATCC29212", "test": "In vitro bacteriostasis test (MIC, broth microdilution)", "format": "cell-based", "conditions": "read-out: Minimum inhibitory concentration (MIC)", "method": "as §1"}, "[5]": {"tested_on": "Streptococcus pneumoniae ATCC49619", "test": "In vitro bacteriostasis test (MIC, broth microdilution)", "format": "cell-based", "conditions": "read-out: Minimum inhibitory concentration (MIC)", "method": "as §1"}, "[6]": {"tested_on": "Pseudomonas aeruginosa ATCC27853", "test": "In vitro bacteriostasis test (MIC, broth microdilution)", "format": "cell-based", "conditions": "read-out: Minimum inhibitory concentration (MIC)", "method": "as §1"}, "[7]": {"tested_on": "Escherichia coli ATCC25922", "test": "In vitro bacteriostasis test (MIC, broth microdilution)", "format": "cell-based", "conditions": "read-out: Minimum inhibitory concentration (MIC)", "method": "as §1"}, "[8]": {"tested_on": "Haemophilus influenza ATCC49247", "test": "In vitro bacteriostasis test (MIC, broth microdilution)", "format": "cell-based", "conditions": "read-out: Minimum inhibitory concentration (MIC)", "method": "as §1"}, "[9]": {"tested_on": "Streptococcus pneumoniae", "test": "In vitro bacteriostasis test (MIC, broth microdilution)", "format": "cell-based", "conditions": "3 unnamed strains (one per table line), read-out: Minimum inhibitory concentration (MIC)", "method": "as §1"}}, "note": "“And” between values parts separate entries of the source, which are not always exact repeats. Equal values may be shown once.", "data": [{"smiles": "C[C@H]1c2cccc(O)c2C(=O)C2=C(O)[C@]3(O)C(=O)C(C(N)=O)=C(O)[C@@H](N(C)C)[C@@H]3[C@@H](O)[C@@H]21", "note": "[doxycycline]", "values": [{"measurement": "concentration at 0.5 h", "setting": "[1]", "result": "< 1", "unit": "ng/g"}]}, {"smiles": "Nc1nc(O)c2ncn(COC(CO)CO)c2n1", "note": "[Ganciclovir technical drug, ganciclovir]", "values": [{"measurement": "Effective rate", "setting": "[2]; 15.63 μg/mL", "result": 21, "unit": "%"}, {"measurement": "CPE of each well", "setting": "[2]; 15.63 μg/mL", "result": "4 (4 for 75%-100% cytopathy) and 3 (3 for 50%-75% cytopathy)"}, {"measurement": "Effective rate", "setting": "[2]; 31.25 μg/mL", "result": 35, "unit": "%"}, {"measurement": "CPE of each well", "setting": "[2]; 31.25 μg/mL", "result": "3 (3 for 50%-75% cytopathy)"}, {"measurement": "Effective rate", "setting": "[2]; 62.5 μg/mL", "result": 64, "unit": "%"}, {"measurement": "CPE of each well", "setting": "[2]; 62.5 μg/mL", "result": "2 (2 for 25%-50% cytopathy) and 3 (3 for 50%-75% cytopathy)"}, {"measurement": "Effective rate", "setting": "[2]; 125 μg/mL", "result": 77, "unit": "%"}, {"measurement": "CPE of each well", "setting": "[2]; 125 μg/mL", "result": "2 (2 for 25%-50% cytopathy) and 1 (1 for ≤25% cytopathy)"}, {"measurement": "Effective rate", "setting": "[2]; 250 μg/mL", "result": 91, "unit": "%"}, {"measurement": "Effective rate", "setting": "[2]; 500 μg/mL", "result": 97, "unit": "%"}]}, {"smiles": "COc1c(N2C[C@@H]3CCCN[C@@H]3C2)c(F)cc2c(=O)c(C(=O)O)cn(C3CC3)c12", "note": "[Moxifloxacin, moxifloxacin]", "values": [{"measurement": "MIC", "setting": "[3]", "result": 0.12, "unit": "µg/mL"}, {"measurement": "MIC", "setting": "[4]", "result": 0.5, "unit": "µg/mL"}, {"measurement": "MIC", "setting": "[5]", "result": 0.12, "unit": "µg/mL"}, {"measurement": "MIC", "setting": "[6]", "result": 4, "unit": "µg/mL"}, {"measurement": "MIC", "setting": "[7]", "result": 0.06, "unit": "µg/mL"}, {"measurement": "MIC", "setting": "[8]", "result": "≤ 0.032", "unit": "µg/mL"}, {"measurement": "MIC", "setting": "[9]", "result": 0.25, "unit": "µg/mL"}]}, {"smiles": "O=C(O)CCCC[C@@H]1CCSS1", "note": "(racemic) [lipoic acid]", "values": [{"measurement": "API concentration in the vitreous body (vitreum) of rats", "setting": "[1]", "result": "< 1", "unit": "ng/g"}]}, {"smiles": "C[C@@H]1C[C@H]2[C@@H]3CCC4=CC(=O)C=C[C@]4(C)[C@@]3(F)[C@@H](O)C[C@]2(C)[C@@]1(O)C(=O)CO", "note": "[dexamethasone]", "values": [{"measurement": "concentration at 0.5 h", "setting": "[1]", "result": "< 1", "unit": "ng/g"}]}]}
